Measurements: patent US20260325533A1, “CDK INHIBITOR COMPOUNDS” (ALEKSIA THERAPEUTICS, INC., priority 2023, published 2026)
Read-outs that look alike come from different tables or passages of the source. Each block holds one compound with its values, some of them ahead of it.

Experiments:
Assay type in all cases: biochemical
CDK6/CCND1 = CDK6/CCND1 (Homo sapiens, UniProt Q00534); assay: CDK6 homogeneous time-resolved fluorescence (HTRF) kinase assay
How it was run: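 1 nM enzyme, 1 mM ATP, 50 nM ULight-4E-BP1 (Thr37/46) peptide, 1% DMSO; 20 min compound preincubation, 60 min reaction, 23 °C. EDTA stop, 2 nM Eu-anti-phospho-4E-BP1 antibody 60 min. TR-FRET 665 nm (or 665/615 ratio); IC50 from 11-point half-log titration, top 10 μM.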

CDK2/CCNE1 = CDK2/CCNE1 (Homo sapiens, UniProt P24941); assay: CDK2 homogeneous time-resolved fluorescence (HTRF) kinase assay
How it was run: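 3 nM CDK2/CCNE1 was preincubated with compound for 20 min at 23 °C in HEPES buffer (pH not stated), then reacted 60 min with 1 mM ATP and 50 nM ULight-4E-BP1 (Thr37/46) peptide. After EDTA stop, Eu-anti-phospho-4E-BP1 antibody (2 nM) was added for 60 min and TR-FRET read at 665 nm.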

CDK4/CCND3 = CDK4/CCND3 (Homo sapiens, UniProt P11802); assay: CDK4 homogeneous time-resolved fluorescence (HTRF) kinase assay
Sequence of CDK4/CCND3 (P11802 whole entry): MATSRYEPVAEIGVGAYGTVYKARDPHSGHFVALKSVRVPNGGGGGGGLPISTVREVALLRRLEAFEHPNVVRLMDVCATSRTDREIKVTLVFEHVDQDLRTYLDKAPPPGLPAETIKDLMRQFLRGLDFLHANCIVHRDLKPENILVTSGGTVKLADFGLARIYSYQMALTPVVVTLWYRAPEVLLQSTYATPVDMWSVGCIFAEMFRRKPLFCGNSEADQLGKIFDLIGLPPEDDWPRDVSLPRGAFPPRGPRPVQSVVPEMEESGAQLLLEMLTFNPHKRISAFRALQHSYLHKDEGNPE
Sequence of CDK4/CCND3 (P30281 whole entry partner): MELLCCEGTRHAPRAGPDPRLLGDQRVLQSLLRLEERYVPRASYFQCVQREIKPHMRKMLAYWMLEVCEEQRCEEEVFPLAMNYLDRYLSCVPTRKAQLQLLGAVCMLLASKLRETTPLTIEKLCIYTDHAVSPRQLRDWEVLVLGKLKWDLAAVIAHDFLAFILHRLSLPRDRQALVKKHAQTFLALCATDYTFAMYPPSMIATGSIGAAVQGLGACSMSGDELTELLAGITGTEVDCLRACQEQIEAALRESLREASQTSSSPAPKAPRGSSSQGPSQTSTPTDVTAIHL
How it was run: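 Inhibition of CDK4/CCND3 (1.5 nM) was measured at high ATP (1 mM) using 50 nM ULight-labelled 4E-BP1 Thr37/46 peptide; detection used 2 nM europium anti-phospho antibody after EDTA quench. IC50 values came from 11-point half-log titrations typically starting at 10 μM.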

CDK1/CCNB1 = CDK1/CCNB1 (Homo sapiens, UniProt P06493); assay: CDK1 homogeneous time-resolved fluorescence (HTRF) kinase assay
Sequence of CDK1/CCNB1 (P06493 whole entry): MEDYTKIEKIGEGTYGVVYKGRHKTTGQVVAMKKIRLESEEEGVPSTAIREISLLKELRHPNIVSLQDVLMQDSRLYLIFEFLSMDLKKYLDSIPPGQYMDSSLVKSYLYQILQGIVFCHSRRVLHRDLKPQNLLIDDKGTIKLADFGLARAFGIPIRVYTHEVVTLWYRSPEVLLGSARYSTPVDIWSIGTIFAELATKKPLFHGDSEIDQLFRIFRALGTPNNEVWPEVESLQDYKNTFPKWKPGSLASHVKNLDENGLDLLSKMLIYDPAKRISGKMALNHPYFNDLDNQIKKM
Sequence of CDK1/CCNB1 (P14635 whole entry partner): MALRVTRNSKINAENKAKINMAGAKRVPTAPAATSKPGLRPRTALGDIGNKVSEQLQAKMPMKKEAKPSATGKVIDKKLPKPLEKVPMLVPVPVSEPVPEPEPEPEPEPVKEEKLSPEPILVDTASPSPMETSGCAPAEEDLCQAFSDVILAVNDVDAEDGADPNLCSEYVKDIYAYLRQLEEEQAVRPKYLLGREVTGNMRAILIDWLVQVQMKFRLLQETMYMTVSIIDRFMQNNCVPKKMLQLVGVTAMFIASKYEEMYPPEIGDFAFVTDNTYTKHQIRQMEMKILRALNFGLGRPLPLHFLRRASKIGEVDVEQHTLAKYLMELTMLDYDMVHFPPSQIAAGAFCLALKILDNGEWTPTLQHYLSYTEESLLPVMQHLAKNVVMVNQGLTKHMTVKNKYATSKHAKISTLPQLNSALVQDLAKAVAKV
How it was run: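 0.5 nM CDK1/CCNB1 was preincubated 20 min at 23 °C with compound in HEPES pH-unspecified buffer (MgCl2, EGTA, DTT, Tween 20), then reacted 60 min with 1 mM ATP and 50 nM ULight-4E-BP1 (Thr37/46) peptide. EDTA-stopped reactions were detected with 2 nM Eu-anti-phospho antibody; IC50 from 11-point half-log titrations.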

[1] = CDK6/CCND, x = IC50 >250 nM, read-out: CDK6/CCND IC50 (>250 nM column)
[2] = CDK2/CCNE, x = IC50 <25 nM, read-out: CDK2/CCNE IC50 (<25 nM)
[3] = CDK4/CCND, x = IC50 >250 nM, read-out: CDK4/CCND IC50 (>250 nM column)
[4] = CDK1/CCNB, x = IC50 >250 nM, read-out: CDK1/CCNB IC50 (>250 nM column)
[5] = >250 nM, CDK6/CCND, 1 mM ATP, read-out: CDK6/CCND IC50, >250 nM
[6] = <25 nM, CDK2/CCNE, read-out: CDK2/CCNE IC50, <25 nM
[7] = >250 nM, CDK4/CCND, read-out: CDK4/CCND IC50, >250 nM
[8] = >250 nM, CDK1/CCNB, read-out: CDK1/CCNB IC50 >250 nM
[9] = CDK2/CCNE, x = IC50 25-250 nM, read-out: CDK2/CCNE IC50 (25-250 nM)
[10] = 1 nM CDK6/CCND1, 1 mM ATP, read-out: CDK6/CCND IC50 <25 nM
[11] = 3 nM CDK2/CCNE1, 1 mM ATP, read-out: CDK2/CCNE IC50 <25 nM
[12] = 1.5 nM CDK4/CCND3, 1 mM ATP, read-out: CDK4/CCND IC50 25-250 nM
[13] = 25-250 nM, CDK2/CCNE, read-out: CDK2/CCNE IC50, 25-250 nM
[14] = CDK2/CCNE, <25 nM, read-out: CDK2/CCNE IC50 <25 nM
[15] = CDK6/CCND, >250 nM marked x, read-out: CDK6/CCND IC50 >250 nM
[16] = CDK2/CCNE, 25-250 nM marked x, read-out: CDK2/CCNE IC50 25-250 nM
[17] = CDK4/CCND, >250 nM marked x, read-out: CDK4/CCND IC50 >250 nM
[18] = CDK1/CCNB, >250 nM marked x, read-out: CDK1/CCNB IC50 >250 nM

Sequence of CDK6/CCND1 (Q00534 whole entry): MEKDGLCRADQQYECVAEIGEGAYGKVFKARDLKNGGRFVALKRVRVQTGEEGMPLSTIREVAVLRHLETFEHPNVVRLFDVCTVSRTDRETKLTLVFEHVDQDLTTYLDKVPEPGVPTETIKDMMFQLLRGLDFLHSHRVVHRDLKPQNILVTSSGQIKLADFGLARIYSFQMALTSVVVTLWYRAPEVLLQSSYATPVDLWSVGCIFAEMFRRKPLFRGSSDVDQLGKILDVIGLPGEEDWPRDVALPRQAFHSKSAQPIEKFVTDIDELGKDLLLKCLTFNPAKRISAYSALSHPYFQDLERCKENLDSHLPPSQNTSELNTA
Sequence of CDK6/CCND1 (P24385 whole entry partner): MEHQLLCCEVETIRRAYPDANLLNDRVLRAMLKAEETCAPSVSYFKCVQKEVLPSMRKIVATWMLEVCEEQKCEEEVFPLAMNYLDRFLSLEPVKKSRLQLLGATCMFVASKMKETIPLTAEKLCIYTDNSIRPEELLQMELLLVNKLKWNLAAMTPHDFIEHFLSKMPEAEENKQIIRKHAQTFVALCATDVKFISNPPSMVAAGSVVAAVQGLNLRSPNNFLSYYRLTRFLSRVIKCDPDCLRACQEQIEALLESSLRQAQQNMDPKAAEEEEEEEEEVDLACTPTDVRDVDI

SMILES: COc1cc(S(C)(=O)=O)ccc1Nc1cc2c(-c3ccc4c(cnn4CC(C)(C)O)c3C)nccc2cn1 [Ex 838, 1-(5-(7-((2-methoxy-4-(methylsulfonyl)phenyl)amino)-2,6-naphthyridin-1-yl)-4-methyl-1H-indazol-1-yl)-2-methylpropan-2-ol]
- IC50 (CDK6/CCND1; [5]): > 250 nM
- IC50 (CDK2/CCNE1; [6]): < 25 nM
- IC50 (CDK4/CCND3; [7]): > 250 nM
- IC50 (CDK1/CCNB1; [8]): > 250 nM

SMILES: CS(=O)(=O)c1ccc(Nc2ncc3ccnc(C4=CCCCC4)c3n2)cc1 [Example 956, 8-(cyclohex-1-en-1-yl)-N-(4-(methylsulfonyl)phenyl)pyrido[3,4-d]pyrimidin-2-amine]
- IC50 (CDK6/CCND1; [10]): < 25 nM
- IC50 (CDK2/CCNE1; [11]): < 25 nM
- IC50 (CDK4/CCND3; [12]): 25 to 250 nM
- IC50 (CDK1/CCNB1; 0.5 nM CDK1/CCNB1, 1 mM ATP, read-out: CDK1/CCNB IC50 25-250 nM): 25 to 250 nM

SMILES: Cc1c(-c2nccc3cnc(Nc4ccc(S(=N)(=O)NC5CCC5)cc4)cc23)ccc2c1cnn2CC(O)(C(F)(F)F)C(F)(F)F (single isomer, unassigned) [Ex 680, N-cyclobutyl-4-((5-(4-methyl-1-(3,3,3-trifluoro-2-hydroxy-2-(trifluoromethyl)propyl)-1H-indazol-5-yl)-2,6-naphthyridin-3-yl)amino)benzenesulfonimidamide]
- IC50 (CDK6/CCND1; [5]): > 250 nM
- IC50 (CDK2/CCNE1; [13]): 25 to 250 nM
- IC50 (CDK4/CCND3; [7]): > 250 nM
- IC50 (CDK1/CCNB1; [8]): > 250 nM

SMILES: CS(=O)(=O)N1CCC(Nc2cc3c(-c4ccc5cn[nH]c5c4)nccc3cn2)CC1 [Ex 76, 5-(1H-indazol-6-yl)-N-(1-(methylsulfonyl)piperidin-4-yl)-2,6-naphthyridin-3-amine]
- IC50 (CDK6/CCND1; CDK6/CCND, <25 nM, read-out: CDK6/CCND IC50 <25 nM): < 25 nM
- IC50 (CDK2/CCNE1; [14]): < 25 nM
- IC50 (CDK4/CCND3; CDK4/CCND, <25 nM, read-out: CDK4/CCND IC50 <25 nM): < 25 nM
- IC50 (CDK1/CCNB1; CDK1/CCNB, 25-250 nM marked x, read-out: CDK1/CCNB IC50 25-250 nM): 25 to 250 nM

SMILES: Cc1c(-c2nccc3cnc(Nc4ccc(S(=O)(=O)Nc5nccc(N6CCN(CCO)CC6)n5)cc4)cc23)ccc2c1cnn2CC(O)(C(F)(F)F)C(F)(F)F [Ex 755, N-(4-(4-(2-hydroxyethyl)piperazin-1-yl)pyrimidin-2-yl)-4-((5-(4-methyl-1-(3,3,3-trifluoro-2-hydroxy-2-(trifluoromethyl)propyl)-1H-indazol-5-yl)-2,6-naphthyridin-3-yl)amino)benzenesulfonamide]
- IC50 (CDK6/CCND1; [5]): > 250 nM
- IC50 (CDK2/CCNE1; [6]): < 25 nM
- IC50 (CDK4/CCND3; [7]): > 250 nM
- IC50 (CDK1/CCNB1; [8]): > 250 nM

SMILES: C=CS(=O)(=O)c1ccc(Nc2cc3c(-c4ccc(C#N)cc4)nccc3cn2)cc1 [Ex 131, 4-(7-((4-(vinylsulfonyl)phenyl)amino)-2,6-naphthyridin-1-yl)benzonitrile]
- IC50 (CDK6/CCND1; [15]): > 250 nM
- IC50 (CDK2/CCNE1; [16]): 25 to 250 nM
- IC50 (CDK4/CCND3; [17]): > 250 nM
- IC50 (CDK1/CCNB1; [18]): > 250 nM

SMILES: CS(=O)(=O)c1ccc(Nc2ncc3ccnc(N4CCC(C#N)CC4)c3n2)cc1 [Example 958, 1-(2-((4-(methylsulfonyl)phenyl)amino)pyrido [3,4-d]pyrimidin-8-yl)piperidine-4-carbonitrile]
- IC50 (CDK6/CCND1; [10]): < 25 nM
- IC50 (CDK2/CCNE1; [11]): < 25 nM
- IC50 (CDK4/CCND3; [12]): 25 to 250 nM
- IC50 (CDK1/CCNB1; 0.5 nM CDK1/CCNB1, 1 mM ATP, read-out: CDK1/CCNB IC50 >250 nM): > 250 nM

SMILES: COc1cc(NS(=O)(=O)c2ccc(Nc3cc4c(-c5ccc6c(cnn6CC(O)(C(F)(F)F)C(F)(F)F)c5C)nccc4cn3)cc2)nc(OC)c1 [Ex 742, N-(4,6-dimethoxypyridin-2-yl)-4-((5-(4-methyl-1-(3,3,3-trifluoro-2-hydroxy-2-(trifluoromethyl)propyl)-1H-indazol-5-yl)-2,6-naphthyridin-3-yl)amino)benzenesulfonamide]
- IC50 (CDK6/CCND1; [5]): > 250 nM
- IC50 (CDK2/CCNE1; [13]): 25 to 250 nM
- IC50 (CDK4/CCND3; [7]): > 250 nM
- IC50 (CDK1/CCNB1; [8]): > 250 nM

Next, values leading:

- IC50 (CDK6/CCND1; [1]): > 250 nM
- IC50 (CDK2/CCNE1; [2]): < 25 nM
- IC50 (CDK4/CCND3; [3]): > 250 nM
- IC50 (CDK1/CCNB1; [4]): > 250 nM
SMILES: CCC1(CC)C(=O)Nc2cc(C#Cc3nccc4cnc(Nc5ccc(S(=O)(=O)C(C)C)cc5)cc34)ccc21 [Ex 429, 3,3-diethyl-6-((7-((4-(isopropylsulfonyl)phenyl)amino)-2,6-naphthyridin-1-yl)ethynyl)indolin-2-one]

- IC50 (CDK6/CCND1; [1]): > 250 nM
- IC50 (CDK2/CCNE1; [9]): 25 to 250 nM
- IC50 (CDK4/CCND3; [3]): > 250 nM
- IC50 (CDK1/CCNB1; [4]): > 250 nM
SMILES: N=S(=O)(c1ccc(Nc2cc3c(C#Cc4cccnc4N)nccc3cn2)cc1)C1CCC1 (racemic) [Ex 416, (4-((5-((2-aminopyridin-3-yl)ethynyl)-2,6-naphthyridin-3-yl)amino)phenyl)(cyclobutyl)(imino)-l6-sulfanone]

- IC50 (CDK6/CCND1; [1]): > 250 nM
- IC50 (CDK2/CCNE1; CDK2/CCNE, x = IC50 >250 nM, read-out: CDK2/CCNE IC50 (>250 nM column)): > 250 nM
- IC50 (CDK4/CCND3; [3]): > 250 nM
- IC50 (CDK1/CCNB1; [4]): > 250 nM
SMILES: COc1cc(C#Cc2nccc3cnc(Nc4ccc(S(C)(=O)=O)cc4)cc23)ncn1 [Ex 568, 5-((6-methoxypyrimidin-4-yl)ethynyl)-N-(4-(methylsulfonyl)phenyl)-2,6-naphthyridin-3-amine]

- IC50 (CDK6/CCND1; [5]): > 250 nM
- IC50 (CDK2/CCNE1; [13]): 25 to 250 nM
- IC50 (CDK4/CCND3; [7]): > 250 nM
- IC50 (CDK1/CCNB1; [8]): > 250 nM
SMILES: CS(=O)(=O)c1ccc(Nc2cc3c(C#Cc4ccc5c(c4)OCO5)nccc3cn2)cc1 [Ex 857, 5-(benzo[d][1,3]dioxol-5-ylethynyl)-N-(4-(methylsulfonyl)phenyl)-2,6-naphthyridin-3-amine]

- IC50 (CDK6/CCND1; [15]): > 250 nM
- IC50 (CDK2/CCNE1; [16]): 25 to 250 nM
- IC50 (CDK4/CCND3; [17]): > 250 nM
- IC50 (CDK1/CCNB1; [18]): > 250 nM
SMILES: CCC1(CC)C(=O)Nc2cc(C#Cc3nccc4cnc(Nc5ccc(S(=N)(=O)C6CC6)cc5OC)cc34)ccc21 (single isomer, unassigned) [Ex 299, 6-((7-((4-(cyclopropanesulfonimidoyl)-2-methoxyphenyl)amino)-2,6-naphthyridin-1-yl)ethynyl)-3,3-diethylindolin-2-one]

- IC50 (CDK6/CCND1; [15]): > 250 nM
- IC50 (CDK2/CCNE1; [14]): < 25 nM
- IC50 (CDK4/CCND3; [17]): > 250 nM
- IC50 (CDK1/CCNB1; [18]): > 250 nM
SMILES: COc1cc(S(=N)(=O)C(C)C)ccc1Nc1cc2c(C#Cc3ccc4c(c3)NC(=O)C43CC3)nccc2cn1 (single isomer, unassigned) [Ex 334, 6'-((7-((2-methoxy-4-(propan-2-ylsulfonimidoyl)phenyl)amino)-2,6-naphthyridin-1-yl)ethynyl)spiro[cyclopropane-1,3'-indolin]-2'-one]

- IC50 (CDK6/CCND1; [1]): > 250 nM
- IC50 (CDK2/CCNE1; [9]): 25 to 250 nM
- IC50 (CDK4/CCND3; [3]): > 250 nM
- IC50 (CDK1/CCNB1; [4]): > 250 nM
SMILES: Cn1cc(C#Cc2nccc3cnc(Nc4ccc(S(C)(=O)=O)cc4)cc23)ncc1=O [Ex 515, 1-methyl-5-((7-((4-(methylsulfonyl)phenyl)amino)-2,6-naphthyridin-1-yl)ethynyl)pyrazin-2(1H)-one]

- IC50 (CDK6/CCND1; [1]): > 250 nM
- IC50 (CDK2/CCNE1; [9]): 25 to 250 nM
- IC50 (CDK4/CCND3; [3]): > 250 nM
- IC50 (CDK1/CCNB1; [4]): > 250 nM
SMILES: CS(=O)(=O)c1ccc(Nc2cc3c(-c4ccc5c(c4)CNC(=O)C5)nccc3cn2)cc1 [Ex 649, 7-(7-((4-(methylsulfonyl)phenyl)amino)-2,6-naphthyridin-1-yl)-1,4-dihydroisoquinolin-3(2H)-one]

- IC50 (CDK6/CCND1; [1]): > 250 nM
- IC50 (CDK2/CCNE1; [2]): < 25 nM
- IC50 (CDK4/CCND3; [3]): > 250 nM
- IC50 (CDK1/CCNB1; [4]): > 250 nM
SMILES: CCC1(CC)C(=O)Nc2cc(C#Cc3nccc4cnc(Nc5ccc(S(=N)(=O)C(C)C)cc5)cc34)ccc21 (single isomer, unassigned) [Ex 414, 3,3-diethyl-6-((7-((4-(propan-2-ylsulfonimidoyl)phenyl)amino)-2,6-naphthyridin-1-yl)ethynyl)indolin-2-one]
